According to ChEMBL document CHEMBL5108051, “Improving the Antimicrobial Performance of Amphiphilic Cationic Antimicrobial Peptides Using Glutamic Acid Full-Scan and Positive Charge Compensation Strategies” (J Med Chem, 2022):
Active and inactive are the calls of the source. The rule behind the calls is not given here. Bridge positions count the residues as written; N and C are the ends. Square brackets hold non-standard residues; d marks the D form. Peptide text beside a SMILES is read from it. * marks the point of attachment. X1 = CC[C@H](C)CCCCC(=O)*; Dab = NCC[C@H](N)C(=O)O

Assays:
[1] = Acute toxicity in BALB/c mouse assessed as decrease in motility at 40 to 80 mg/kg, ip administered as single dose measured for 7 days; format: organism-based; details: in vivo, 168 h, dose 40-80 mg/kg, time 7 day
Cell membrane [2] = experiment: Induction of cell membrane disruption in Staphylococcus aureus ATCC 25923 assessed as cell morphological damage measured after 30 mins by […] electron microscope analysis; format: subcellular
[3] = Acute toxicity in BALB/c mouse assessed as abdominal twitching at 40 to 80 mg/kg, ip administered as single dose measured for 7 days; format: organism-based; details: in vivo, 168 h, dose 40-80 mg/kg, time 7 day
[4] = Acute toxicity in BALB/c mouse assessed as mortality at 40 mg/kg, ip administered as single dose measured for 7 days; format: organism-based; details: in vivo, time 7 day, read-out: Activity
Staphylococcus aureus [5] = experiment: Antibiofilm activity against Staphylococcus aureus ATCC 25923 assessed as inhibition of biofilm formation measured at 0.5 to 4 times MIC after 24 hrs by crystal violet staining based assay; format: functional, organism-based; details: DDE = dose-dependent effect
Staphylococcus aureus [6] = experiment: Antibacterial activity against rifampin resistant Staphylococcus aureus ATCC 25923 assessed as fractional inhibitory concentration index in presence of polymyxin B by checkerboard assay; format: functional
Staphylococcus aureus [7] = experiment: Antibacterial activity against gentamicin resistant Staphylococcus aureus ATCC 25923 assessed as fractional inhibitory concentration index in presence of vancomycin by checkerboard assay; format: functional
Staphylococcus aureus [8] = experiment: Antimicrobial activity against Staphylococcus aureus ATCC 25923 assessed as fold increase in MIC in presence of NaCl; format: functional
[9] = Acute toxicity in BALB/c mouse assessed as mortality at 80 mg/kg, ip administered as single dose measured for 7 days; format: organism-based; details: in vivo, time 7 day; for mortality at 168 h: BALB/c, read-out: Activity
Escherichia coli [10] = experiment: Antibacterial activity against Escherichia coli ATCC 25922 assessed as fractional inhibitory concentration index in presence of polymyxin B by checkerboard assay; format: functional
Cell membrane [11] = experiment: Induction of cell membrane disruption in Staphylococcus aureus ATCC 25923 assessed as increase in PI uptake measured after 30 to 120 mins by propidium iodide staining based FACS flow cytometry analysis (reference value: 15%); format: subcellular; details: time 30-120 min
Staphylococcus aureus [12] = experiment: Antibacterial activity against gentamicin resistant Staphylococcus aureus ATCC 25923 assessed as fractional inhibitory concentration index in presence of polymyxin B by checkerboard assay; format: functional
Escherichia coli [13] = experiment: Antibacterial activity against gentamicin resistant Escherichia coli ATCC 25922 assessed as fractional inhibitory concentration index in presence of polymyxin B by checkerboard assay; format: functional
Escherichia coli [14] = experiment: Antibacterial activity against rifampin resistant Escherichia coli ATCC 25922 assessed as fractional inhibitory concentration index in presence of polymyxin B by checkerboard assay; format: functional
Cell membrane [15] = experiment: Induction of cytoplasmic membrane depolarization in Staphylococcus aureus ATCC 25923 assessed as increase in fluorescence intensity at 1 to 4 times MIC measured within 1 min by DiSC3-5 dye based fluorescence method; format: subcellular; details: DDE = dose-dependent effect
Staphylococcus aureus [16] = experiment: Antibacterial activity against Staphylococcus aureus ATCC 25923 assessed as resistance development measured after 15 passages at sub-MIC concentration by resistance development assay; format: functional, organism-based
Staphylococcus aureus [17] = experiment: Antibacterial activity against Staphylococcus aureus ATCC 25923 assessed as fractional inhibitory concentration index in presence of polymyxin B by checkerboard assay; format: functional
[18] = Cytotoxicity against human Glomerular mesenchymal cell assessed as reduction in cell viability at 0 to 128 uM incubated for 1 hr by Resazurin cell viability kit; format: toxicity, cell-based; details: glomerular mesenchymal cells, dose 0-128 µM
Escherichia coli [19] = experiment: Antibiofilm activity against Escherichia coli ATCC 25922 assessed as inhibition of biofilm formation at 0.5 times MIC measured after 24 hrs by crystal violet staining based assay; format: functional, organism-based
Escherichia coli [20] = experiment: Antibacterial activity against gentamicin resistant Escherichia coli ATCC 25922 assessed as fractional inhibitory concentration index in presence of rifampin by checkerboard assay; format: functional
[21] = Acute toxicity in BALB/c mouse assessed as rough hairs at 40 to 80 mg/kg, ip administered as single dose measured for 7 days; format: organism-based; details: in vivo, 168 h, dose 40-80 mg/kg, time 7 day
Cell membrane [22] = experiment: Induction of outer membrane permeabilization to NPN in Staphylococcus aureus ATCC 25923 cells assessed as increase in fluorescence intensity measured within 1 min by NPN fluorescent dye based microplate reader assay; format: subcellular
Escherichia coli [23] = experiment: Antibacterial activity against rifampin resistant Escherichia coli ATCC 25922 assessed as fractional inhibitory concentration index in presence of vancomycin by checkerboard assay; format: functional
Escherichia coli [24] = experiment: Antibiofilm activity against Escherichia coli ATCC 25922 assessed as inhibition of biofilm formation at 1 times MIC measured after 24 hrs by crystal violet staining based assay; format: functional, organism-based
[25] = Acute toxicity in BALB/c mouse lung assessed as distortion of alveolar morphology at 20 to 80 mg/kg, ip administered as single dose measured for 7 days by H and E staining method; format: organism-based; details: in vivo, 168 h, dose 20-80 mg/kg, time 7 day
[26] = Retention time of the compound by RP-HPLC analysis; format: physicochemical
Staphylococcus aureus [27] = experiment: Antibacterial activity against Staphylococcus aureus ATCC 25923 assessed as fractional inhibitory concentration index in presence of rifampin by checkerboard assay; format: functional
Staphylococcus aureus [28] = experiment: Antimicrobial activity against Staphylococcus aureus ATCC 25923 assessed as fold increase in MIC in presence of MgCl2; format: functional
Escherichia coli [29] = experiment: Antimicrobial activity against Escherichia coli ATCC 25922 in presence of NaCl; format: functional, organism-based
Escherichia coli [30] = experiment: Antimicrobial activity against Escherichia coli ATCC 25922 in presence of KCl; format: functional, organism-based
[31] = Acute toxicity in BALB/c mouse assessed as pathological changes in kidney at 20 to 80 mg/kg, ip administered as single dose measured for 7 days by H and E staining method; format: organism-based; details: in vivo, 168 h, dose 20-80 mg/kg, time 7 day
[32] = Acute toxicity in BALB/c mouse assessed as pathological changes in lung at 20 to 80 mg/kg, ip administered as single dose measured for 7 days by H and E staining method; format: organism-based; details: in vivo, 168 h, dose 20-80 mg/kg, time 7 day
Staphylococcus aureus [33] = experiment: Antibacterial activity against Staphylococcus aureus ATCC 25923 infected in BALB/C mouse pulmonary infection model assessed as increase in alveolar aggregation in lung at 10 mg/kg, ip after 24 hrs by H and E staining method; format: functional, organism-based
Staphylococcus aureus [34] = experiment: Antibacterial activity against Staphylococcus aureus ATCC 25923 assessed as inhibition of gentamicin resistance development measured after 15 passages in presence of gentamicin by resistance development assay; format: functional, organism-based
[35] = Stability of compound in serum measured after 1 to 6 hrs by RP-HPLC analysis; format: ADME, cell-free; details: time 1-6 hrs
Escherichia coli [36] = experiment: Antimicrobial activity against Escherichia coli ATCC 25922 in presence of MgCl2; format: functional, organism-based
HK-2 = experiment: Cytotoxicity against human HK-2 cells assessed as reduction in cell viability at 0 to 128 uM incubated for 1 hr by Resazurin cell viability kit; format: toxicity, cell-based; details: hk-2, 1 h, dose 0-128 µM
[37] = Acute toxicity in BALB/c mouse lung assessed as constricted pulmonary alveoli at 10 to 40 mg/kg, ip administered as single dose measured for 7 days by H and E staining method; format: organism-based; details: in vivo, 168 h, dose 10-40 mg/kg, time 7 day
Escherichia coli [38] = experiment: Bactericidal activity against Escherichia coli ATCC 25922 at 1 times MIC measured after 1 hr by time-killing kinetics assay; format: functional

Compound | Activity [1] | Activity (Cell membrane [2]) | Activity [3] | mortality at 168 h [4] [%] | Activity (Staphylococcus aureus [5]) | fractional inhibitory concentration index (FICI) (Staphylococcus aureus [6]) | fractional inhibitory concentration index (FICI) (Staphylococcus aureus [7]) | fold change (FC) (Staphylococcus aureus [8]) | mortality at 168 h [9] [%] | fractional inhibitory concentration index (FICI) (Escherichia coli [10]) | Activity (Cell membrane [11]) [%] | fractional inhibitory concentration index (FICI) (Staphylococcus aureus [12]) | fractional inhibitory concentration index (FICI) (Escherichia coli [13]) | fractional inhibitory concentration index (FICI) (Escherichia coli [14]) | Activity (Cell membrane [15]) | Activity (Staphylococcus aureus [16]) | fractional inhibitory concentration index (FICI) (Staphylococcus aureus [17]) | fractional inhibitory concentration index (FICI) (Escherichia coli [20]) | Activity (Cell membrane [22]) | Retention_time [26] [min] | further results
CC[C@H](C)[C@H](NC(=O)[C@@H]1CCCN1C(=O)[C@H](CC(C)C)NC(=O)[C@@H](N)Cc1ccccc1)C(=O)N[C@H](C(=O)N[C@@H](C)C(=O)N[C@@H](CCCCN)C(=O)N[C@@H](CC(C)C)C(=O)N[C@@H](CC(C)C)C(=O)N[C@@H](CO)C(=O)NCC(=O)N[C@@H](CC(C)C)C(=O)N[C@@H](CC(C)C)C(N)=O)C(C)C (H-FLPIVAKLLSGLL-NH2) | Toxic | Active | Toxic | 40 | Dde | 0.5 | 0.625 | 2 | 100 | 0.625 | 24.1 | 0.625 | 0.75 | 0.25 | Dde | Active | 0.75 | 0.625 | Active | 19.445 | CC50 at 1 h [18]: 35.9 µM; Activity (Escherichia coli [19]): Active; Activity [21]: Toxic; fractional inhibitory concentration index (FICI) (Escherichia coli [23]): 0.25; Activity (Escherichia coli [24]): Active; Activity [25]: Toxic; fractional inhibitory concentration index (FICI) (Staphylococcus aureus [27]): 0.75; fold change (FC) (Staphylococcus aureus [28]): 2
CC(C)C[C@H](NC(=O)[C@H](CC(C)C)NC(=O)[C@H](CCC(=O)O)NC(=O)[C@H](CCCCN)NC(=O)[C@H](CC(C)C)NC(=O)[C@H](CC(C)C)NC(=O)[C@H](CCCCN)NC(=O)[C@H](C)NC(=O)[C@@H](NC(=O)[C@H](CCCCN)NC(=O)[C@@H]1CCCN1C(=O)[C@H](CC(C)C)NC(=O)[C@@H](N)Cc1ccccc1)C(C)C)C(N)=O (H-FLPKVAKLLKELL-NH2) | Toxic | Active | Toxic | 20 | Dde | 0.5 |  |  | 40 | 0.375 | 49.3 | 0.75 | 0.75 | 0.25 | Dde | Active | 0.75 | 0.625 | Active | 16.475 | Activity (Escherichia coli [29]): Active; Activity (Escherichia coli [30]): Active; Activity [31]: Non-Toxic; Activity [32]: Non-Toxic; Activity (Staphylococcus aureus [33]): Active; Activity (Staphylococcus aureus [34]): Active; Stability [35]: Stable; CC50 at 1 h [18]: > 128 µM; Activity [21]: Toxic; fractional inhibitory concentration index (FICI) (Escherichia coli [23]): 0.825; Activity (Escherichia coli [36]): Active
CC[C@H](C)CCCCC(=O)N[C@@H](CCN)C(=O)N[C@H](C(=O)N[C@@H](CCN)C(=O)N[C@H]1CCNC(=O)[C@H]([C@@H](C)O)NC(=O)[C@H](CCN)NC(=O)[C@H](CCN)NC(=O)[C@H](CC(C)C)NC(=O)[C@@H](Cc2ccccc2)NC(=O)[C@H](CCN)NC1=O)[C@@H](C)O (X1-[Dab]T[Dab][Dab][Dab][dF]L[Dab][Dab]T; lactam 4-C) |  |  |  |  |  |  | 1 | 4 |  |  | 45.8 |  |  |  |  | Active |  | 0.375 | Active | 13.125 | Activity (Escherichia coli [29]): Active; Activity (Escherichia coli [30]): Active; Activity (HK-2): Non-Toxic; Activity ([9]; ip, 80 mg/kg, 168 h): Toxic; Stability [35]: Stable; Activity (Escherichia coli [19]): Active; Activity (Escherichia coli [24]): Active; Activity [37]: Non-Toxic; fractional inhibitory concentration index (FICI) (Staphylococcus aureus [27]): 2; Activity (Escherichia coli [38]): 100%; fold change (FC) (Staphylococcus aureus [28]): 2
